Tests used:
[1] = Metabolic stability in rat liver microsomes; format: in vitro ADME; conditions: 1 μM, rat liver microsomes, NADPH-generating system, 60 min, 37 °C
Method: Jaspine B (1 μM) was reconstituted in 100 mM potassium phosphate buffer (pH 7.4) containing 0.25 mg of RLMs and was pre-incubated for 5 min at 37 °C. The reaction was initiated by adding an NADPH-generating system (1.3 mM β-NADP, 3.3 mM glucose-6-phosphate, 3.3 mM MgCl2, and 1.0 unit/mL glucose-6-phosphate dehydrogenase) and then incubated (final volume 100 μL) for 0, 15, 30, and 60 min at 37 °C in a shaking water bath. The reaction was stopped by placing the incubation tubes on ice and adding 200 μL of ice-cold acetonitrile containing 0.5 ng/mL of berberine. After vortexing for 10 min and centrifugation at 13,200 rpm for 5 min, 2 μL of the supernatant was injected directly into the LC-MS/MS system.

[2] = in vitro; format: in vitro ADME, rat
Method: For the measurement of the effect of TC on the tight junction of biological membranes, the permeability of 50 μM Lucifer yellow, a marker of paracellular permeation, was measured in the presence of TC (0, 0.1, 1, 10, 100 mM). Prior to the experiment, ileal segments from SD rats (about 20 cm) were placed in the chambers and were submerged in fresh, prewarmed (37 °C) HBSS for 15 min for acclimatization. The chambers were continuously bubbled with carbogen gas (5% CO2/ 95% O2) during the experiment. The experiments began by replacing the HBSS with HBSS containing 50 μM Lucifer yellow and various concentrations of TC on the apical side (A) and adding fresh HBSS to the basal side (B). Aliquots (400 μL) of media were withdrawn from the receiver compartment (B) after 0, 20, 40, 60, and 80 min, and the volume of liquid in the receiver compartment was replenished with fresh, prewarmed HBSS after each sampling. Aliquots (200 μL) of all samples were used for the determination of Lucifer yellow concentration. The fluorescence of Lucifer yellow in the samples was measured using a fluorescence spectrophotometer (Infinite 200 PRO, Tecan, Switzerland) with excitation at 425 nm and emission at 535 nm.
A to B and B to A permeability of Jaspine B was measured in the presence of TC and rat bile. One mL of HBSS containing 50 μM Jaspine B and 10 mM TC or 20% bile was added to the donor side and 1 mL of preheated fresh HBSS was added to the receiver side. Aliquots (400 μL) of media were withdrawn at 0, 20, 40, 60, and 80 min from the receiver compartment as described above. Aliquots (50 μL) of all samples were stored at −80 °C until analysis.
Aliquots (50 μL) of all samples were added to 250 μL of acetonitrile containing 0.5 ng/mL of berberine. After vortexing for 10 min and centrifugation at 13,200 rpm for 5 min, 2 μL of the supernatant was injected directly into the LC-MS/MS system.
The apparent permeability (Papp) of the drug was calculated by dividing the initial drug transport rate (dQ/dt, pmol/min) by the initial drug concentration in the donor compartment of the insert (Co) multiplied by the surface area of the insert (A, cm^2): (3) Papp=dQ/dt×1/ACo

Row | percentage remaining [1] [%] | increase of permeability caused by tight junction opening [2] | permeability change [2] | Compound
1 | 63.4 |  |  | CN(C)C(=N)N=C(N)N [metformin, reference compound]
2 |  | ~ 2.8 fold | sharp increase | Lucifer yellow [reference compound]
